In patent US8748471B2, “2-alkyl-cycloalk(en)yl-carboxamides” (priority 2004, dated 2014):

Experiment: log P determination by HPLC on reverse-phase column (C 18), acidic range pH 2.3 (EEC Directive 79/831 Annex V. A8)
Type: physicochemical
Protocol: The stated log P values were determined in accordance with EEC Directive 79/831 Annex V. A8 by HPLC (High Performance Liquid Chromatography) on a reverse-phase column (C 18). Temperature: 43° C. Mobile phases for the determination in the acidic range (pH 2.3): 0.1% aqueous phosphoric acid, acetonitrile; linear gradient from 10% acetonitrile to 90% acetonitrile. Calibration was carried out using unbranched alkan-2-ones (having 3 to 16 carbon atoms) with known log P values (determination of the log P values by the retention times using linear interpolation between two successive alkanones).

[1] = Table 1 (I-c), pH 2.3, HPLC C18, 43° C., main diastereomer or, where several values in a cell, the individual diastereomers

Structure (SMILES) | logP [1] | also measured
CC(C)(C)CCC1CCCCC1NC(=O)c1nccnc1Cl (mixture of isomers) [I-c-42] | 4.27 | –
Cc1occc1C(=O)NC1CCCCC1CCC(C)C (mixture of isomers) [I-c-65] | 4.28 | –
CC(C[Si](C)(C)C)C1CCCCC1NC(=O)c1cn(C)nc1C(F)F (mixture of isomers) [I-k-6] | – | logP (pH 2.3): 4.56
Cc1nc(C(F)F)c(C(=O)NC2CCCCC2C(C)C[Si](C)(C)C)s1 (mixture of isomers) [I-k-8] | – | logP (pH 2.3): 5.13
CC(C)CC(C)C1CCCCC1N (stereo not drawn) [2-(1,3-dimethylbutyl)cyclohexanamine] | – | chromatographic logP (reverse-phase HPLC column (C 18), pH 2.3, text of Example 1, pH 2.3, two values = mixture of diastereomers, read-out: log P (pH 2.3)): 4.07
CC(C)CC(C)C1CCCCC1NC(=O)c1cccnc1Cl (stereo not drawn) [I-c-2] | 4.04 | –
Cn1cc(C(=O)NC2CCCCC2CCC(C)(C)C)c(C(F)F)n1 (stereo not drawn) [I-c-19] | 4.22 | –
Cc1nc(C(F)F)c(C(=O)NC2CCCCC2CCC(C)(C)C)s1 (stereo not drawn) [I-c-23] | 4.71 | –
Cn1nc(C(F)(F)F)c(C(=O)NC2CCCCC2CCC(C)(C)C)c1F (stereo not drawn) [I-c-24] | 4.72 | –
Cc1occc1C(=O)NC1CCCCC1CCC(C)(C)C (stereo not drawn) [I-c-25] | 4.55 | –
CC1=C(C(=O)NC2CCCCC2C(C)CC(C)C)CCO1 (stereo not drawn) [I-c-26] | 4.06 | –
CC(C)CCC1CCCCC1NC(=O)c1ccccc1Cl (stereo not drawn) [I-c-71] | 4.54 | –
Cn1cc(C(=O)NC2CCCCC2CCC(C)(C)C)c(C(F)F)n1 (stereo not drawn) [I-c-81] | 4.24 | –
Cn1nc(C(F)(F)F)c(C(=O)NC2CCCCC2CCC(C)(C)C)c1F (stereo not drawn) [I-c-82] | 4.72 | –

Now from value to molecule, other results behind:

logP [1] | Structure (SMILES) | also measured
4.66 | CC(C)(C)CCC1CCCCC1NC(=O)C1=C(C(F)(F)F)OCCS1 (mixture of isomers) [I-c-39] | –
4.45 | Cn1cc(C(=O)NC2CCCCC2CCC(C)(C)C)c(C(F)(F)F)n1 (mixture of isomers) [I-c-40] | –
4.88 | Cn1cc(C(=O)NC2CCCCC2CCC(C)(C)C)c(C(F)(F)F)c1 (mixture of isomers) [I-c-41] | –
4.6 | Cc1nc(C(F)(F)F)c(C(=O)NC2CCCCC2CCC(C)C)s1 (mixture of isomers) [I-c-56] | –
4.19 | CC(C)CCC1CCCCC1NC(=O)c1cn(C)nc1C(F)(F)F (mixture of isomers) [I-c-57] | –
3.76 | CC(C)CCC1CCCCC1NC(=O)c1cccnc1Cl (mixture of isomers) [I-c-58] | –
4.46 | Cc1nc(C(F)F)c(C(=O)NC2CCCCC2CCC(C)C)s1 (mixture of isomers) [I-c-59] | –
3.79 | Cc1nn(C)c(F)c1C(=O)NC1CCCCC1CCC(C)C (mixture of isomers) [I-c-60] | –
4.59 | CC(C)CCC1CCCCC1NC(=O)c1ccccc1C(F)(F)F (mixture of isomers) [I-c-61] | –
3.95 | CC(C)CCC1CCCCC1NC(=O)c1cn(C)nc1C(F)F (mixture of isomers) [I-c-62] | –
3.19 | Cc1nn(C)cc1C(=O)NC1CCCCC1CCC(C)C (mixture of isomers) [I-c-63] | –
4.42 | CC(C)CCC1CCCCC1NC(=O)C1=C(C(F)(F)F)OCCS1 (mixture of isomers) [I-c-64] | –
4.51 | CC1=C(C(=O)NC2CCCCC2CCC(C)C)SCCO1 (mixture of isomers) [I-c-68] | –
4.61 | CC(C)CCC1CCCCC1NC(=O)c1cn(C)cc1C(F)(F)F (stereo not drawn) [I-c-69] | –
4.66 | CC(C)CCC1CCCCC1NC(=O)c1ccccc1I (stereo not drawn) [I-c-70] | –
4.8 | CC(C)CCC1CCCCC1NC(=O)c1ccsc1I (stereo not drawn) [I-c-72] | –
4.47 | CC(C)CCC1CCCCC1NC(=O)c1c(C(F)(F)F)nn(C)c1F (stereo not drawn) [I-c-74] | –
4.22 | CC(C)CCCC1CCCCC1NC(=O)c1cccnc1Cl (stereo not drawn) [I-c-75] | –
4.66 | CC(C)CCCC1CCCCC1NC(=O)c1cn(C)nc1C(F)(F)F (stereo not drawn) [I-c-76] | –
4.07 | Cc1nn(C)c(Cl)c1C(=O)NC1CCCCC1CCC(C)C (stereo not drawn) [I-c-77] | –
4.95 | Cc1nc(C(F)F)c(C(=O)NC2CCCCC2CCCC(C)C)s1 (stereo not drawn) [I-c-78] | –
5.06 | Cc1nc(C(F)(F)F)c(C(=O)NC2CCCCC2CCCC(C)C)s1 (stereo not drawn) [I-c-79] | –
